This is an account of results in patent US8598344B2, “CDKI pathway inhibitors and uses thereof” (Senex Biotechnology, priority 2009, dated 2013).

For one assay, the target named is T1, CLK2 (Homo sapiens, UniProt P49760).
T1 construct: purchased KinomeScan, a division of Ambit Biosciences
The experiment in a line: KinomeScan competition binding assay. The settings on record: 10 μM compound. The text has this:
(§1) This similarity led us to test SNX14 for the ability to inhibit 285 kinases, using the services of KinaseProfiler of Millipore Corporation (285 kinases). […] The KINOMEscan assay has been described in detail in Fabian et al., Nat. Biotechnol. 23: 329 (2005) and Karaman et al., Nat. Biotechnol. 26: 127 (2008).
(§2) The KinomeScan assay is based on a competition binding assay that quantitatively measures the ability of a compound to compete with an immobilized, ATP site directed ligand. The assay is performed by combining three components: DNA-tagged kinase; immobilized ligand; and a test compound. The ability of the test compound to compete with the immobilized ligand is measured via quantitative PCR of the DNA tag. […] The CDKs tested by Millipore for inhibition with SNX14 included CDK1, CDK2, CDK3, CDK5, CDK7 and CDK9; none of these were inhibited to less than 49 percent of control (POC) activity. The CDKs tested by KinomeScan for the effect of Compound 1 included CDK2, CDK3, CDK4, CDK5, CDK7, CDK8, CDK9 and CDK19; aside from CDK8 and CDK19, the strongest inhibited CDK was CDK7 (33% POC binding). To determine the inhibition of which kinases correlates with the biological activity of SNX2-class compounds, we tested eight additional compounds of the SNX2 family, which gave different IC50 values in the cellular assays, for the ability to affect 24 kinases that were most susceptible to compound 1, through the services of KinomeScan. […] We have also determined the binding constant (Kd) for SNX14, compound 1, compound 20, compound 26, compound 43 and compound 14 in kinase assays for CDK8 and CDK19 (Table 1).

A further assay has as its target T2, CLK4 (Homo sapiens, UniProt Q9HAZ1).
T2 construct: purchased KinomeScan, a division of Ambit Biosciences
The experiment in a line: KinomeScan competition binding assay. Particulars: 10 μM compound.
Source text: as §1, §2

Another assay has as its target T3, CLK1 (Homo sapiens, UniProt P49759).
T3 construct: purchased KinomeScan, a division of Ambit Biosciences
The assay can be described thus: KinomeScan competition binding assay. Particulars: 10 μM compound.
Source text: as §1, §2

Another assay has as its target T4, IRAK1 (Homo sapiens, UniProt P51617).
T4 construct: purchased KinomeScan, a division of Ambit Biosciences
The assay can be described thus: KinomeScan competition binding assay. Particulars: 10 μM compound.
Source text: as §1, §2

The target in a further assay is T5, SLK (Homo sapiens, UniProt Q9H2G2).
T5 construct: purchased KinomeScan, a division of Ambit Biosciences
The assay can be described thus: KinomeScan competition binding assay. The settings on record: 10 μM compound.
Source text: as §1, §2

In a further assay the target is T6, HIPK2 (Homo sapiens, UniProt Q9H2X6).
T6 construct: purchased KinomeScan, a division of Ambit Biosciences
The experiment in a line: KinomeScan competition binding assay. The settings on record: 10 μM compound.
Source text: as §1, §2

For another assay, the target named is T7, PIK3CA (I800L) (Homo sapiens, UniProt P42336, I800L).
T7 construct: purchased KinomeScan, a division of Ambit Biosciences
The assay can be described thus: KinomeScan competition binding assay. The settings on record: 10 μM compound.
Source text: as §1, §2

Another assay concerns the target T8, MEK3 (Homo sapiens, UniProt P46734).
T8 construct: purchased KinomeScan, a division of Ambit Biosciences
T8 sequence (P46734 1-347): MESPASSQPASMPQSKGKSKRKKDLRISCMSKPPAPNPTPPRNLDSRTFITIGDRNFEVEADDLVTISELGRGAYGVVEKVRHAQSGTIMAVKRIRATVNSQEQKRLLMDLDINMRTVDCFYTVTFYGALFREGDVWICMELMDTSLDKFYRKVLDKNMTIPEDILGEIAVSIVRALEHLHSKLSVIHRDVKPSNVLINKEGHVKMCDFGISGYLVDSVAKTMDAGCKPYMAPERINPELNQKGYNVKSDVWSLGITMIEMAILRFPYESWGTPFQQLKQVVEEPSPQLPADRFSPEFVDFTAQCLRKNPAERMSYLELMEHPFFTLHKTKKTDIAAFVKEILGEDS
The assay can be described thus: KinomeScan competition binding assay. The settings on record: 10 μM compound.
Source text: as §1, §2

The target in the next assay is T9, CSNK1G3 (Homo sapiens, UniProt Q9Y6M4).
T9 construct: purchased KinomeScan, a division of Ambit Biosciences
The experiment in a line: KinomeScan competition binding assay. The settings on record: 10 μM compound.
Source text: as §1, §2

Another assay has as its target T10, MAPKAPK5 (Homo sapiens, UniProt Q8IW41).
T10 construct: purchased KinomeScan, a division of Ambit Biosciences
T10 sequence (Q8IW41 1-473): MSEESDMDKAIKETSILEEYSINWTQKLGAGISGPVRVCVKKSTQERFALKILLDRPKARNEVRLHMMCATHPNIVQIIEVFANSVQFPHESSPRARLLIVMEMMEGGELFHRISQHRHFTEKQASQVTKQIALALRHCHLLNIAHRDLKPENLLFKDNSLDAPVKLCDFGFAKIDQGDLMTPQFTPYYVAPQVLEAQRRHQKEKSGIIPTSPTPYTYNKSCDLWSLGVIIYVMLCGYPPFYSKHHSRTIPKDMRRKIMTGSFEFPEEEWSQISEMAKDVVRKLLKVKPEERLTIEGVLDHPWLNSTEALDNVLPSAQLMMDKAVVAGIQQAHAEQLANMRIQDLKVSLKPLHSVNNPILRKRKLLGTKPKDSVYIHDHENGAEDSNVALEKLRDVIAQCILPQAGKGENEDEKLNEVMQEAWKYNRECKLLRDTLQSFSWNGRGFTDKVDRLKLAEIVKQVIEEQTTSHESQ
The experiment in a line: KinomeScan competition binding assay. The settings on record: 10 μM compound.
Source text: as §1, §2

A further assay addresses T11, HIPK3 (Homo sapiens, UniProt Q9H422).
T11 construct: purchased KinomeScan, a division of Ambit Biosciences
The assay can be described thus: KinomeScan competition binding assay. The settings on record: 10 μM compound.
Source text: as §1, §2

The target in the next assay is T12, STK16 (Homo sapiens, UniProt O75716).
T12 construct: purchased KinomeScan, a division of Ambit Biosciences
The assay can be described thus: KinomeScan competition binding assay. Particulars: 10 μM compound.
Source text: as §1, §2

The target of a further assay is T13, CDK8 (Homo sapiens, UniProt P49336).
T13 construct: purchased KinomeScan, a division of Ambit Biosciences
The assay can be described thus: KinomeScan competition binding assay. The settings on record: for POC ligand binding, CDK8: 10 μM compound; for Kd: read-out: CDK8 inhibition (Kd).
Source text: as §1, §2

Assay [1] deals with induction of transcription by p21 (CDKI pathway, CMV promoter-GFP) in HT1080 fibrosarcoma cells. The assay can be described thus: Cellular assay for CDKI pathway inhibition: CMV-GFP induction by IPTG-inducible p21 in HT1080 reporter cells. Type of assay: cell-based, human. The procedure: Briefly, the reporter cell line described in the above-referenced application, which carries IPTG (isopropyl-β-thio-galactoside)-inducible p21 gene together with a p21-inducible promoter driving the expression of Green Fluorescent Protein (GFP) was plated in 96-well plates, at 2000 cells per well for the no-IPTG arm of the assay and at 5000 cells per well for the IPTG arm of the assay. To induce the maximal levels of p21, IPTG was added to 50 μM concentration. Serial 2-fold dilutions of the tested compounds were added in quadruplicates to wells with and without IPTG, ˜10 min after IPTG addition.
This assay is based on the induction of green fluorescent protein (GFP) expression from the cytomegalovirus (CMV) promoter in human HT1080 fibrosarcoma cells that express CDKI p21 from an isopropyl-(3-thio-galactoside (IPTG)-inducible promoter. The compound activity as a CDKI pathway inhibitor is measured by its ability to prevent the stimulation of the CMV promoter upon the addition of p21-inducing IPTG. CMV promoter activity is measured by the ratio of GFP fluorescence to the relative cell number, as determined by staining cellular DNA with Hoechst 33342. This assay was conducted in two modes. […]

Where [2] appears, read: Table 1, IC50 calculated on the basis of the maximal inhibition produced by the highest doses, IPTG mode (50 μM or 2 μM) not stated, read-out: Cell-based assay (IC50).
Setting [3] is: Table 2, calculated assuming maximal effect = zero GFP/Hoechst, no unit in table, μM from FIG. 8 legend, no activity at 40 μM given as >100, read-out: IC50 in the cellular assay.

Like-named read-outs stand apart in the source and are kept apart here.

T13 sequence (P49336 whole entry): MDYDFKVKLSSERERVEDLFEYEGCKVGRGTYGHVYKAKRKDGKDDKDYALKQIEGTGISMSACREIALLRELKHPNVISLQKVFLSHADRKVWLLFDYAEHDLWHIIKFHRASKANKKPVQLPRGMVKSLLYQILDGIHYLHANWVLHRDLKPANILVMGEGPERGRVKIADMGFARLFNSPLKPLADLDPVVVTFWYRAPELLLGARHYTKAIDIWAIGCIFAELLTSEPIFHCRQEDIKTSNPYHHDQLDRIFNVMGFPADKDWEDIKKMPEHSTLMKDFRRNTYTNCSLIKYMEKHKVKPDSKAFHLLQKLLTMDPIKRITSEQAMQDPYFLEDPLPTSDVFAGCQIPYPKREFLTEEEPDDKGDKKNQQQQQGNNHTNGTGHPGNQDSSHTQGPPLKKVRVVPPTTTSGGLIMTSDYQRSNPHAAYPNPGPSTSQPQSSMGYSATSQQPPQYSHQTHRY
T5 sequence (Q9H2G2 whole entry): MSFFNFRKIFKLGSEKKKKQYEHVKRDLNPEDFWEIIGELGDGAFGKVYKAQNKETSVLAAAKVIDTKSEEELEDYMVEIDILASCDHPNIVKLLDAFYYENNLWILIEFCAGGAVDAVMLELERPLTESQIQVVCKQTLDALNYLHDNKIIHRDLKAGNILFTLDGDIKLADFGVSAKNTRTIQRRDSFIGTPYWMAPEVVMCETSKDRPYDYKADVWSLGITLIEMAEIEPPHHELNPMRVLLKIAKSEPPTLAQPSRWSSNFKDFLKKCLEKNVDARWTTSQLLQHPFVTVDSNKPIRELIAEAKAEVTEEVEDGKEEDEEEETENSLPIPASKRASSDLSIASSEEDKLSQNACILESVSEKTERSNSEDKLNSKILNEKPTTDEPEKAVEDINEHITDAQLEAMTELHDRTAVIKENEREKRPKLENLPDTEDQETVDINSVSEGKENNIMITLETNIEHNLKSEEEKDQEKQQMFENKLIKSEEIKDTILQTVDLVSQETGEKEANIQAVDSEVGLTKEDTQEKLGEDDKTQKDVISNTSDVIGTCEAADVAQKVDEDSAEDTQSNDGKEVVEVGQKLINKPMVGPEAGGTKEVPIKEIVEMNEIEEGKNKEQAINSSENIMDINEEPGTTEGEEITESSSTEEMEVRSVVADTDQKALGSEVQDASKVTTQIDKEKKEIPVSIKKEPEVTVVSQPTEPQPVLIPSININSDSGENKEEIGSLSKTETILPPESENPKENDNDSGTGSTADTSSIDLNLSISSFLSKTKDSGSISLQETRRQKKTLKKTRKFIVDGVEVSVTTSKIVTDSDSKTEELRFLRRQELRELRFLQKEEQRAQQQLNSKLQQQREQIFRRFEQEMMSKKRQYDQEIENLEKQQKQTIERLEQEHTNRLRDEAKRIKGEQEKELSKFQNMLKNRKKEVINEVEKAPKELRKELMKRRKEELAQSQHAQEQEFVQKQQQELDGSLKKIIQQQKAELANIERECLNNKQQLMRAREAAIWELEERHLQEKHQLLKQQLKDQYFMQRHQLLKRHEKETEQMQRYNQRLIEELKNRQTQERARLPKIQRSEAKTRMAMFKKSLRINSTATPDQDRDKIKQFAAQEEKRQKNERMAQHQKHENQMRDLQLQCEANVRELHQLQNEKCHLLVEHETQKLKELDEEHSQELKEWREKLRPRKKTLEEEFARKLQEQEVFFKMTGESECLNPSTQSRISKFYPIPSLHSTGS
T12 sequence (O75716 whole entry): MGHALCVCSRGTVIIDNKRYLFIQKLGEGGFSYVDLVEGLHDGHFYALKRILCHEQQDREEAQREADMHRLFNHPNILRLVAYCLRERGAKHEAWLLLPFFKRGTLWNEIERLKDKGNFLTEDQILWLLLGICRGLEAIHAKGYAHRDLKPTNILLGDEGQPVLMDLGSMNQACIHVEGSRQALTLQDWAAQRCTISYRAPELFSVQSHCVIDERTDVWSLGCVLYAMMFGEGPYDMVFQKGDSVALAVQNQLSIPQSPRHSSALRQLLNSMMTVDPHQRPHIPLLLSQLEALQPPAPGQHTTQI
T1 sequence (P49760 whole entry): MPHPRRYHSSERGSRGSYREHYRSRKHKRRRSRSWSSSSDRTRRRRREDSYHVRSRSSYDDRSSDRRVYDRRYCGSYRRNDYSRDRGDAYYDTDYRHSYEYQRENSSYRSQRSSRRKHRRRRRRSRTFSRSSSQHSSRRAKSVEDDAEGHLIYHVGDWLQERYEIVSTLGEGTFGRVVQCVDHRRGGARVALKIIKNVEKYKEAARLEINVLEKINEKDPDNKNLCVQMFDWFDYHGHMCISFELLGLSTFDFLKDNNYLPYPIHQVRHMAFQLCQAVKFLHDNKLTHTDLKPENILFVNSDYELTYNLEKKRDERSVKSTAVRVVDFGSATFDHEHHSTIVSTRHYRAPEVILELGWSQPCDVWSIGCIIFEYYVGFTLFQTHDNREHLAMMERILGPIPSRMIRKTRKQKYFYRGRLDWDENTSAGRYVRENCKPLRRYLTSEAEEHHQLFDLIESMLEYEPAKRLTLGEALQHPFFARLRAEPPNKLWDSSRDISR
T7 sequence (P42336 whole entry I800L): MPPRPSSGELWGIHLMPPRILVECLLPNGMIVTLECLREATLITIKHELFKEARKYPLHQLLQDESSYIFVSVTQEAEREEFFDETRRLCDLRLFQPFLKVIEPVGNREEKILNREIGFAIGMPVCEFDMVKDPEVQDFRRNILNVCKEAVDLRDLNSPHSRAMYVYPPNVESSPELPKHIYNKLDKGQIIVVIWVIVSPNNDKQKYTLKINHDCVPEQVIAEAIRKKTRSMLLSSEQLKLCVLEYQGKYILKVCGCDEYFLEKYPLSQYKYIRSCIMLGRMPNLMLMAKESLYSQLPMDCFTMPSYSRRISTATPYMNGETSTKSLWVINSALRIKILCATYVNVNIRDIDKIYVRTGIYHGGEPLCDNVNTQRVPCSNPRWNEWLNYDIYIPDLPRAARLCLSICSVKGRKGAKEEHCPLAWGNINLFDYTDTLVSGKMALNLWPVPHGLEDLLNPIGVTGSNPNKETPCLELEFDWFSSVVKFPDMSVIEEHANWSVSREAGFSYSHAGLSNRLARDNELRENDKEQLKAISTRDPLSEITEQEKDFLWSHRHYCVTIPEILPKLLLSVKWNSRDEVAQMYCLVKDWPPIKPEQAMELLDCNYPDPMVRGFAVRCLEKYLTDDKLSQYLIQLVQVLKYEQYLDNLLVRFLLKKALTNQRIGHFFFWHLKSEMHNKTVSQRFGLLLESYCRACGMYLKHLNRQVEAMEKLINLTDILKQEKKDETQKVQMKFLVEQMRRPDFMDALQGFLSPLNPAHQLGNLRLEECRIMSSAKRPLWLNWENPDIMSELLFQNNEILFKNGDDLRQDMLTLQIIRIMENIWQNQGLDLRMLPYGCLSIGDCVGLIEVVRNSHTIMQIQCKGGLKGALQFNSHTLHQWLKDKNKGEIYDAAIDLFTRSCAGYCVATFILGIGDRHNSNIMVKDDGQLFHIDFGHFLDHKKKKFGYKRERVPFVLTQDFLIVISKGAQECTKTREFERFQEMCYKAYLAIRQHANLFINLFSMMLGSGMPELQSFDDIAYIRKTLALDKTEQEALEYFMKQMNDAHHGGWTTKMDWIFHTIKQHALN
T3 sequence (P49759 whole entry): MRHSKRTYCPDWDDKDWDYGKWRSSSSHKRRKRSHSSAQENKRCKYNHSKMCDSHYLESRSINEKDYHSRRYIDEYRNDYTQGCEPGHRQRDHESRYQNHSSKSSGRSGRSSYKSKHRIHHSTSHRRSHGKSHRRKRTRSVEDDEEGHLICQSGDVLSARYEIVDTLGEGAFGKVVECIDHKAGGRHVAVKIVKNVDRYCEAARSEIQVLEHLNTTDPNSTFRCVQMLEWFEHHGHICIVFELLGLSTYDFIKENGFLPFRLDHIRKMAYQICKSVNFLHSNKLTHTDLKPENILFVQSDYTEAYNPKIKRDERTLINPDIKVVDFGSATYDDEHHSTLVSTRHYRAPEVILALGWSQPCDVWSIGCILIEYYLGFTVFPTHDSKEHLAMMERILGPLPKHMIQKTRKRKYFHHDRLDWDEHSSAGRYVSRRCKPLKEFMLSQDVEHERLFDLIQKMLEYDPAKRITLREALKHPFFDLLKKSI
T2 sequence (Q9HAZ1 whole entry): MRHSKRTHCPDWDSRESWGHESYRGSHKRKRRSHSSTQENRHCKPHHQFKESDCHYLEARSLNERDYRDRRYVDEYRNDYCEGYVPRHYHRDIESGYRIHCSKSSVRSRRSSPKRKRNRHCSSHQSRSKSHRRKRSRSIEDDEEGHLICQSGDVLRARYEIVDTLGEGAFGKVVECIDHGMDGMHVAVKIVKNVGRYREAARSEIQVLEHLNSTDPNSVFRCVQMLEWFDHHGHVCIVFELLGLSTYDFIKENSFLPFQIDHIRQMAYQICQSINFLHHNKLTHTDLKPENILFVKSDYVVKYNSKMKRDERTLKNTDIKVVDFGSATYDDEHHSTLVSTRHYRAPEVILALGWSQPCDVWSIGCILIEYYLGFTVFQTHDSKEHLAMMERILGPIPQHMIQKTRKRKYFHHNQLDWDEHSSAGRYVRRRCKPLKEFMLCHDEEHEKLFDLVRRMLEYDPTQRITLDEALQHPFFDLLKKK
T9 sequence (Q9Y6M4 whole entry): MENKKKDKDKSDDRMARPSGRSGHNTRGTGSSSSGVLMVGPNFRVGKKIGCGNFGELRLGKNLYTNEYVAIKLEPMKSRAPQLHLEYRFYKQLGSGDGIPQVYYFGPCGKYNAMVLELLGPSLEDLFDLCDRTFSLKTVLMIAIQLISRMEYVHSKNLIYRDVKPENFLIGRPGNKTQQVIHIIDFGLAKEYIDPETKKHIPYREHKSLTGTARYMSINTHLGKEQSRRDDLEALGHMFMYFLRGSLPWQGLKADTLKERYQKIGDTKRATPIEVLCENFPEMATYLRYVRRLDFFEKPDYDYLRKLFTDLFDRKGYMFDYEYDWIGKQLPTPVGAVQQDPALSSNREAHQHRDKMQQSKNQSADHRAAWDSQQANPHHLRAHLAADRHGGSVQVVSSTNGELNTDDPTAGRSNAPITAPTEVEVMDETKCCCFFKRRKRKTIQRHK

Consider `N#Cc1ccc2ncnc(NCCc3ccc4ccccc4c3)c2c1` [compound 26], for which the “POC ligand binding, CLK2” value on CLK2 was 58 POC. The “POC ligand binding, CLK4” value on CLK4 turned out to be 26 POC. Further, the “POC ligand binding, CLK1” value at CLK1 worked out at 32 POC. Further, the “POC ligand binding, IRAK1” value at IRAK1 is on record as 89 POC. For the same molecule, the “POC ligand binding, SLK” value at SLK stood at 73 POC. For the same molecule, on HIPK2, the “POC ligand binding, HIPK2” value stood at 73 POC. Besides, the “POC ligand binding, PIK3CA (I800L)” value on PIK3CA (I800L) is on record as 81 POC. In addition, the “POC ligand binding, MEK3” value on MEK3 was found to be 78 POC. Besides, the “POC ligand binding, CSNK1G3” value at CSNK1G3 was 50 POC. Also, at MAPKAPK5, the “POC ligand binding, MAPKAPK5” value stood at 100 POC. In addition, the “POC ligand binding, HIPK3” value at HIPK3 is on record as 66 POC. In addition, on STK16, the “POC ligand binding, STK16” value worked out at 16 POC. Moreover, the “inhibition of CDK8” value at CDK8 (10 μM) is approximately 100%. On CDK8, the “POC ligand binding, CDK8” value is reported as 0 POC and the dissociation constant Kd was 0.57 µM. Further, the IC50 in assay [1] (setting [2]) was 0.769 µM. In addition, the IC50 in [1] (setting [3]) was 1.15 µM.

On to `N#Cc1ccc2ncnc(NCc3ccc(Cl)cc3)c2c1` [compound 20], for which the “POC ligand binding, CLK2” value at CLK2 turned out to be 16 POC. Further, the “POC ligand binding, CLK4” value at CLK4 is on record as 11 POC. The “POC ligand binding, CLK1” value on CLK1 is reported as 12 POC. For the same molecule, at IRAK1, the “POC ligand binding, IRAK1” value came out at 26 POC. The “POC ligand binding, SLK” value on SLK came to 61 POC. Also, at HIPK2, the “POC ligand binding, HIPK2” value is recorded as 28 POC. Moreover, the “POC ligand binding, PIK3CA (I800L)” value on PIK3CA (I800L) was determined as 73 POC. Further, on MEK3, the “POC ligand binding, MEK3” value is 76 POC. Moreover, the “POC ligand binding, CSNK1G3” value on CSNK1G3 stood at 82 POC. Besides, the “POC ligand binding, MAPKAPK5” value at MAPKAPK5 was 92 POC. Besides, the “POC ligand binding, HIPK3” value at HIPK3 is listed as 28 POC. Also, the “POC ligand binding, STK16” value at STK16 came out at 25 POC. Also, the “POC ligand binding, CDK8” value at CDK8 is recorded as 0.15 POC. The Kd on CDK8 came out at 0.24 µM. In addition, the results for the IC50 in [1] (setting [2]) and in assay [1] (setting [3]) were 0.199 µM and 0.6 µM, respectively.
